Results on 17 compounds are retold here after PubChem BioAssay AID328 (DTP/NCI, 2004).

The test system of the test is BDF1 mice, P388 leukemia ip, median survival T/C. Kind of test: NCI In Vivo Anticancer Drug Screen. Data for tumor model P388 Leukemia (intraperitoneal) in B6D2F1 (BDF1) mice. To be noted: endpoint: median survival time, higher = longer survival. The essentials: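 Reported as T/C, where T is the survival measurement in dosed animals and C the same measurement in vehicle controls.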

Setting [1] is: dose: 25.0 mg/kg/injection, schedule: Q01DX009 (ip), vehicle: saline with Tween-80.
The mark [2] stands for this setting: dose: 30.0 mg/kg/injection, schedule: Q04DX003 (ip), vehicle: saline with Tween-80.
[3] abbreviates: dose: 50.0 mg/kg/injection, schedule: Q01DX009 (ip), vehicle: saline with Tween-80.
The mark [4] stands for this setting: dose: 100.0 mg/kg/injection, schedule: Q04DX003 (ip), vehicle: saline with Tween-80.
The mark [5] stands for this setting: dose: 200.0 mg/kg/injection, schedule: Q04DX003 (ip), vehicle: saline with Tween-80.
[6] abbreviates: dose: 100.0 mg/kg/injection, schedule: Q01DX009 (ip), vehicle: saline with Tween-80.
Where [7] appears, read: dose: 400.0 mg/kg/injection, schedule: Q04DX003 (ip), vehicle: saline with Tween-80.
The mark [8] stands for this setting: dose: 200.0 mg/kg/injection, schedule: Q01DX009 (ip), vehicle: saline with Tween-80.
Setting [9] is: dose: 50.0 mg/kg/injection, schedule: Q04DX003 (ip), vehicle: saline with Tween-80.
Setting [10] is: dose: 100.0 mg/kg/injection, schedule: Q04DX003 (ip), vehicle: Klucel (hydroxypropylcellulose) (HPC).
Setting [11] is: dose: 200.0 mg/kg/injection, schedule: Q04DX003 (ip), vehicle: Klucel (hydroxypropylcellulose) (HPC).
[12] abbreviates: dose: 400.0 mg/kg/injection, schedule: Q04DX003 (ip), vehicle: Klucel (hydroxypropylcellulose) (HPC).

Values joined by “and” are separate entries in the source; they are usually repeats but may differ in a detail not shown here. Equal entries are not always repeated. Inconclusive results and toxic doses are left out.

Regarding `Nc1cc(C(=O)Nc2ccc(C3=NCCN3)cc2)ccc1C(=O)Nc1ccc(C2=NCCN2)cc1`, the T/C reads like this: (dose: 1.4 mg/kg/injection, schedule: Q01DX009 (ip), vehicle: saline with Tween-80) 158 % of control; (dose: 2.2 mg/kg/injection, schedule: Q01DX009 (ip), vehicle: saline with Tween-80) 154 % of control; (dose: 3.3 mg/kg/injection, schedule: Q01DX009 (ip), vehicle: saline with Tween-80) 154 % of control and 200 % of control; (dose: 5.0 mg/kg/injection, schedule: Q01DX009 (ip), vehicle: saline with Tween-80) 191 % of control; (dose: 8.0 mg/kg/injection, schedule: Q01DX009 (ip), vehicle: saline with Tween-80) 230 % of control; (dose: 12.0 mg/kg/injection, schedule: Q01DX009 (ip), vehicle: saline with Tween-80) 230 % of control. Also, the T/C reads like this: (dose: 12.5 mg/kg/injection, schedule: Q01DX009 (ip), vehicle: saline with Tween-80) 230 % of control; (dose: 13.0 mg/kg/injection, schedule: Q04DX003 (ip), vehicle: saline with Tween-80) 170 % of control; (dose: 20.0 mg/kg/injection, schedule: Q04DX003 (ip), vehicle: saline with Tween-80) 208 % of control; under setting [1], 230 % of control; under setting [2], 250 % of control and 181 % of control; (dose: 44.0 mg/kg/injection, schedule: Q04DX003 (ip), vehicle: saline with Tween-80) 272 % of control. For the same compound, the T/C runs as follows: under setting [3], 92 % of control; (dose: 66.0 mg/kg/injection, schedule: Q04DX003 (ip), vehicle: saline with Tween-80) 229 % of control and 272 % of control; under setting [4], 166 % of control and 204 % of control; (dose: 150.0 mg/kg/injection, schedule: Q04DX003 (ip), vehicle: saline with Tween-80) 100 % of control; under setting [5], 100 % of control.
Regarding `COc1cc2c3c(c1O)C1(C=CC(=O)C=C1)CC3N(C)CC2` (stereo not drawn), the T/C by setting is: under setting [3], 112 % of control; under setting [6], 115 % of control.
Regarding `CCCCCCCCOc1cc(OC(C)=O)c2c(ccc3ccccc32)c1`, the T/C runs as follows: under setting [4], 88 % of control; under setting [5], 87 % of control; under setting [7], 88 % of control.
In the case of `Cc1cccc(-n2c(CC#N)n[nH]c2=S)c1`, the T/C was 96 % of control under setting [3] and 100 % of control under setting [8].
In the case of `Cc1c(O)ccc(=O)n1O`, the T/C by setting is: (dose: 20.0 mg/kg/injection, schedule: Q01DX009 (ip), vehicle: Klucel (hydroxypropylcellulose) (HPC)) 108 % of control; (dose: 20.0 mg/kg/injection, schedule: Q01DX009 (ip), vehicle: saline) 95 % of control; (dose: 40.0 mg/kg/injection, schedule: Q01DX009 (ip), vehicle: Klucel (hydroxypropylcellulose) (HPC)) 121 % of control; (dose: 40.0 mg/kg/injection, schedule: Q01DX009 (ip), vehicle: saline with Tween-80) 117 % of control; (dose: 40.0 mg/kg/injection, schedule: Q01DX009 (ip), vehicle: saline) 95 % of control; (dose: 80.0 mg/kg/injection, schedule: Q01DX009 (ip), vehicle: Klucel (hydroxypropylcellulose) (HPC)) 110 % of control. The T/C is 116 % of control under setting [6]; 104 % of control under setting [4]; 122 % of control (dose: 160.0 mg/kg/injection, schedule: Q01DX009 (ip), vehicle: saline with Tween-80); 100 % of control (dose: 160.0 mg/kg/injection, schedule: Q01DX009 (ip), vehicle: saline); 108 % of control under setting [8]; 100 % of control under setting [5]. In addition, the T/C under setting [7] is 90 % of control.
As for `COc1ccc(N2CCN(c3ccc([N+](=O)[O-])c4no[n+]([O-])c34)CC2)cc1`, the T/C is 101 % of control (dose: 15.0 mg/kg/injection, schedule: Q04DX003 (ip), vehicle: saline with Tween-80); 100 % of control under setting [2]; 104 % of control (dose: 60.0 mg/kg/injection, schedule: Q04DX003 (ip), vehicle: saline with Tween-80).
Regarding `N#Cc1ncc(C(Cl)(Cl)Cl)nc1Cl`, the T/C was 110 % of control under setting [3]; 105 % of control under setting [9]; 120 % of control under setting [6]; 115 % of control and 118 % of control under setting [4]; 120 % of control under setting [5].
`Cc1cccnc1NS(=O)(=O)c1ccccc1`: the T/C is, setting by setting: under setting [4], 100 % of control; under setting [5], 104 % of control; under setting [7], 108 % of control.
On the same counts, the results for `CCCCNC(C)(C)C(SSS(=O)(=O)O)c1ccc(Cl)cc1` (stereo not drawn) are 100 % of control, 100 % of control and 116 % of control.
`Cc1ccc(Nc2c([N+](=O)[O-])c(=O)n(C)c(=O)n2C)cc1C`: the T/C under setting [3] was 103 % of control, the T/C under setting [6] was 96 % of control and the T/C under setting [8] is 96 % of control.
On to `Clc1nc2nc(Cl)n(Cl)c2nc1Cl`, for which the T/C reads like this: (dose: 12.5 mg/kg/injection, schedule: Q01DX006 (ip), vehicle: saline with Tween-80) 100 % of control; (dose: 25.0 mg/kg/injection, schedule: Q01DX006 (ip), vehicle: saline with Tween-80) 91 % of control; under setting [1], 86 % of control; (dose: 25.0 mg/kg/injection, schedule: Q01DX009 (ip), vehicle: water) 109 % of control; (dose: 50.0 mg/kg/injection, schedule: Q01DX006 (ip), vehicle: saline with Tween-80) 109 % of control; under setting [3], 86 % of control. In addition, the T/C is 105 % of control under setting [9]; 111 % of control (dose: 100.0 mg/kg/injection, schedule: Q01DX009 (ip), vehicle: water); 105 % of control under setting [4]; 116 % of control (dose: 200.0 mg/kg/injection, schedule: Q01DX009 (ip), vehicle: water); 112 % of control under setting [5].
On to `COc1cc(Br)c2c(c1OC)C(=O)CC2`, for which the T/C is, setting by setting: (dose: 100.0 mg/kg/injection, schedule: Q01DX009 (ip), vehicle: Klucel (hydroxypropylcellulose) (HPC)) 104 % of control; under setting [10], 100 % of control; (dose: 200.0 mg/kg/injection, schedule: Q01DX009 (ip), vehicle: Klucel (hydroxypropylcellulose) (HPC)) 95 % of control; under setting [11], 91 % of control; (dose: 400.0 mg/kg/injection, schedule: Q01DX009 (ip), vehicle: Klucel (hydroxypropylcellulose) (HPC)) 100 % of control; under setting [12], 95 % of control.
For the compound `O=C1c2ccccc2S(=O)(=O)N1CCCBr`, the T/C is 95 % of control (dose: 12.5 mg/kg/injection, schedule: Q01DX009 (ip), vehicle: Klucel (hydroxypropylcellulose) (HPC)); 110 % of control (dose: 25.0 mg/kg/injection, schedule: Q01DX009 (ip), vehicle: Klucel (hydroxypropylcellulose) (HPC)); 105 % of control (dose: 50.0 mg/kg/injection, schedule: Q01DX009 (ip), vehicle: Klucel (hydroxypropylcellulose) (HPC)); 95 % of control under setting [10]; 95 % of control under setting [11]; 95 % of control under setting [12].
With `Fc1ccc(C(Cl)Cl)cc1`, the T/C was 104 % of control (dose: 100.0 mg/kg/injection, schedule: Q01DX009 (ip), vehicle: saline); 109 % of control (dose: 200.0 mg/kg/injection, schedule: Q01DX009 (ip), vehicle: saline); 118 % of control (dose: 400.0 mg/kg/injection, schedule: Q01DX009 (ip), vehicle: saline).
As to `C1CN2CCN1CC2.[Cl][Ni+][Cl]`, the T/C reads like this: (dose: 0.78 mg/kg/injection, schedule: Q01DX009 (ip), vehicle: saline) 103 % of control; (dose: 1.56 mg/kg/injection, schedule: Q01DX009 (ip), vehicle: saline) 92 % of control and 99 % of control; (dose: 3.12 mg/kg/injection, schedule: Q01DX009 (ip), vehicle: saline) 99 % of control and 103 % of control; (dose: 6.25 mg/kg/injection, schedule: Q01DX009 (ip), vehicle: saline) 100 % of control and 101 % of control.
`Cc1nc2c(sc(=N)n2-c2ccccc2)c(=O)[nH]1`: the T/C under setting [3] is 114 % of control.
On to `Cc1cnc2c(C)cccc2c1/C=C/c1ccc(N(C)C)cc1`, for which the T/C under setting [3] was 116 % of control, the T/C under setting [6] was 116 % of control and the T/C under setting [8] is 103 % of control.
